The test system of this series is Cecum Ligation-Puncture (CLP) induced sepsis. Briefly: Cecum Ligation-Puncture (CLP) induced sepsis in rats, daily calcitriol dosing, survival and body weight. The note with it: CLP septic rats. Format: in vivo, adult Wistar rats. On the procedure:
Then, the optimal dosing of calcitriol as an example of an agent for treatment of sepsis according to the present invention was determined. Anesthesia was induced in adult Wistar rats with 5% isoflurane followed by maintenance on 2.5% isoflurane. The cecum was exteriorized via a small abdominal incision, and was then ligated approximately 3.5 […] distal to the cecum tip. The ligated cecum was punctured twice with a 26-gauge needle and was gently squeezed to extrude some stool. The cecum was replaced in the abdomen and the incision closed with 4-0 silk sutures in two layers, abdominal wall and skin. This Cecum Ligation-Puncture (CLP) procedure induced sepsis in the animals. Sham-operated rats were treated identically, except that the cecum was neither ligated nor punctured.
The rats then received either standard therapy (normal saline (30 ml/kg body weight) given once immediately after the CLP procedure to compensate the third-space fluid loss and imipenem (25 mg/kg body weight) daily subcutaneously) or therapy according to the present invention (calcitriol at 25 ng, 100 ng or 400 ng in peanut oil subcutaneously daily). The rats were monitored daily for body weight and survival.
Referring now to FIG. 9 and FIG. 10, there are shown, respectively, a graph of percent survival as a function of time after induction of sepsis in rats showing the effect of various doses of calcitriol (none, triangles; 25 ng daily, line; 100 ng daily, circles; and 400 ng daily, squares) (FIG. 9); and a graph of body weight in grams as a function of time after induction of sepsis in rats showing the effect of various doses of calcitriol (none, triangles; 25 ng daily, line; 100 ng daily, circles; and 400 ng daily, squares) (FIG. 10).

The source of these data is patent publication US20150335662A1, “METHODS FOR DIAGNOSING AND TREATING SEPSIS” (priority 2013, published 2015).

SMILES strings stand for the structures.

For `C=C1C(=CC=C2CCC[C@]3(C)[C@@H]2CC[C@@H]3[C@H](C)CCCC(C)(C)O)C[C@@H](O)C[C@@H]1O` [calcitriol, (1R,3S)-5-[2-[(1R,3aR,7aS)-1-[(2R)-6-hydroxy-6-methyl-heptan-2-yl]-7a-methyl-2,3,3a,5,6,7-hexahydro-1H-inden-4-ylidene]ethylidene]-4-methylidene-cyclohexane-1,3-diol], the signs of hypercalcemia result (400 ng daily subcutaneously) is listed as “typical signs of hypercalcemia”. Moreover, the effect on survival result (400 ng daily subcutaneously, FIG. 9) is on record as “negatively affected”. Under “400 ng daily subcutaneously, FIG. 10”, the “effect on body weight” value is reported as “negatively affected”. Further, the “optimal dose for survival” value (calcitriol 25, 100 or 400 ng in peanut oil subcutaneously daily, FIG. 9) is 100 ng daily. For the same molecule, the “optimal dose for body weight” value (calcitriol 25, 100 or 400 ng in peanut oil subcutaneously daily, FIG. 10) was found to be 100 ng daily.
